According to the NIST ThermoML archive (doi:10.1021/je049762q):
Numbers after ± are expanded uncertainties.

Test: molar heat capacity at constant pressure
Details: 101.33 kPa

## Brc1cc(Br)cc(Br)c1 [1,3,5-tribromobenzene]
150.41 K, Crystal
  molar heat capacity at constant pressure: 107.89 ± 0.62 J/K/mol
153.44 K, Crystal
  molar heat capacity at constant pressure: 109.1 ± 0.62 J/K/mol
156.48 K, Crystal
  molar heat capacity at constant pressure: 110.25 ± 0.62 J/K/mol
159.51 K, Crystal
  molar heat capacity at constant pressure: 111.32 ± 0.62 J/K/mol
160 K, Crystal
  molar heat capacity at constant pressure: 111.51 ± 0.62 J/K/mol
162.55 K, Crystal
  molar heat capacity at constant pressure: 112.49 ± 0.63 J/K/mol
165.6 K, Crystal
  molar heat capacity at constant pressure: 113.63 ± 0.63 J/K/mol
168.64 K, Crystal
  molar heat capacity at constant pressure: 114.79 ± 0.63 J/K/mol
170 K, Crystal
  molar heat capacity at constant pressure: 115.31 ± 0.63 J/K/mol
171.69 K, Crystal
  molar heat capacity at constant pressure: 115.96 ± 0.63 J/K/mol
174.73 K, Crystal
  molar heat capacity at constant pressure: 117.13 ± 0.63 J/K/mol
177.78 K, Crystal
  molar heat capacity at constant pressure: 118.3 ± 0.64 J/K/mol
180 K, Crystal
  molar heat capacity at constant pressure: 119.09 ± 0.64 J/K/mol
180.84 K, Crystal
  molar heat capacity at constant pressure: 119.39 ± 0.64 J/K/mol
183.89 K, Crystal
  molar heat capacity at constant pressure: 120.53 ± 0.64 J/K/mol
186.94 K, Crystal
  molar heat capacity at constant pressure: 121.72 ± 0.64 J/K/mol
190 K, Crystal
  molar heat capacity at constant pressure: 122.82 ± 0.65 J/K/mol
193.05 K, Crystal
  molar heat capacity at constant pressure: 123.91 ± 0.65 J/K/mol
196.11 K, Crystal
  molar heat capacity at constant pressure: 125.07 ± 0.65 J/K/mol
199.17 K, Crystal
  molar heat capacity at constant pressure: 126.16 ± 0.65 J/K/mol
200 K, Crystal
  molar heat capacity at constant pressure: 126.45 ± 0.65 J/K/mol
202.22 K, Crystal
  molar heat capacity at constant pressure: 127.16 ± 0.65 J/K/mol
205.28 K, Crystal
  molar heat capacity at constant pressure: 128.31 ± 0.66 J/K/mol
208.34 K, Crystal
  molar heat capacity at constant pressure: 129.4 ± 0.66 J/K/mol
210 K, Crystal
  molar heat capacity at constant pressure: 130.05 ± 0.66 J/K/mol
211.4 K, Crystal
  molar heat capacity at constant pressure: 130.6 ± 0.66 J/K/mol
214.46 K, Crystal
  molar heat capacity at constant pressure: 131.79 ± 0.66 J/K/mol
217.52 K, Crystal
  molar heat capacity at constant pressure: 132.78 ± 0.67 J/K/mol
220 K, Crystal
  molar heat capacity at constant pressure: 133.7 ± 0.67 J/K/mol
220.58 K, Crystal
  molar heat capacity at constant pressure: 133.9 ± 0.67 J/K/mol
223.64 K, Crystal
  molar heat capacity at constant pressure: 135.03 ± 0.67 J/K/mol
226.7 K, Crystal
  molar heat capacity at constant pressure: 136.15 ± 0.67 J/K/mol
229.77 K, Crystal
  molar heat capacity at constant pressure: 137.26 ± 0.67 J/K/mol
230 K, Crystal
  molar heat capacity at constant pressure: 137.34 ± 0.67 J/K/mol
232.83 K, Crystal
  molar heat capacity at constant pressure: 138.31 ± 0.68 J/K/mol
235.89 K, Crystal
  molar heat capacity at constant pressure: 139.48 ± 0.68 J/K/mol
238.95 K, Crystal
  molar heat capacity at constant pressure: 140.62 ± 0.68 J/K/mol
240 K, Crystal
  molar heat capacity at constant pressure: 141.01 ± 0.68 J/K/mol
242.01 K, Crystal
  molar heat capacity at constant pressure: 141.75 ± 0.68 J/K/mol
245.07 K, Crystal
  molar heat capacity at constant pressure: 142.87 ± 0.69 J/K/mol
248.12 K, Crystal
  molar heat capacity at constant pressure: 143.98 ± 0.69 J/K/mol
250 K, Crystal
  molar heat capacity at constant pressure: 144.67 ± 0.69 J/K/mol
251.17 K, Crystal
  molar heat capacity at constant pressure: 145.1 ± 0.69 J/K/mol
254.22 K, Crystal
  molar heat capacity at constant pressure: 146.19 ± 0.69 J/K/mol
257.27 K, Crystal
  molar heat capacity at constant pressure: 147.31 ± 0.69 J/K/mol
260 K, Crystal
  molar heat capacity at constant pressure: 148.3 ± 0.7 J/K/mol
260.32 K, Crystal
  molar heat capacity at constant pressure: 148.41 ± 0.7 J/K/mol
263.36 K, Crystal
  molar heat capacity at constant pressure: 149.52 ± 0.7 J/K/mol
266.41 K, Crystal
  molar heat capacity at constant pressure: 150.63 ± 0.7 J/K/mol
269.46 K, Crystal
  molar heat capacity at constant pressure: 151.81 ± 0.7 J/K/mol
270 K, Crystal
  molar heat capacity at constant pressure: 152.01 ± 0.7 J/K/mol
272.51 K, Crystal
  molar heat capacity at constant pressure: 152.93 ± 0.71 J/K/mol
275.56 K, Crystal
  molar heat capacity at constant pressure: 153.96 ± 0.71 J/K/mol
278.61 K, Crystal
  molar heat capacity at constant pressure: 155.09 ± 0.71 J/K/mol
280 K, Crystal
  molar heat capacity at constant pressure: 155.47 ± 0.71 J/K/mol
281.65 K, Crystal
  molar heat capacity at constant pressure: 155.93 ± 0.71 J/K/mol
284.69 K, Crystal
  molar heat capacity at constant pressure: 157.08 ± 0.71 J/K/mol
287.74 K, Crystal
  molar heat capacity at constant pressure: 158.17 ± 0.72 J/K/mol
290 K, Crystal
  molar heat capacity at constant pressure: 158.9 ± 0.72 J/K/mol
290.78 K, Crystal
  molar heat capacity at constant pressure: 159.14 ± 0.72 J/K/mol
293.81 K, Crystal
  molar heat capacity at constant pressure: 160 ± 0.72 J/K/mol
296.86 K, Crystal
  molar heat capacity at constant pressure: 161.12 ± 0.72 J/K/mol
298.15 K, Crystal
  molar heat capacity at constant pressure: 161.57 ± 0.72 J/K/mol
299.91 K, Crystal
  molar heat capacity at constant pressure: 162.28 ± 0.72 J/K/mol
300 K, Crystal
  molar heat capacity at constant pressure: 162.32 ± 0.72 J/K/mol
302.95 K, Crystal
  molar heat capacity at constant pressure: 163.09 ± 0.73 J/K/mol
306 K, Crystal
  molar heat capacity at constant pressure: 164.04 ± 0.73 J/K/mol
306.85 K, Crystal
  molar heat capacity at constant pressure: 164.3 ± 0.73 J/K/mol
309.04 K, Crystal
  molar heat capacity at constant pressure: 165.03 ± 0.73 J/K/mol
310 K, Crystal
  molar heat capacity at constant pressure: 165.35 ± 0.73 J/K/mol
310.25 K, Crystal
  molar heat capacity at constant pressure: 165.42 ± 0.73 J/K/mol
312.08 K, Crystal
  molar heat capacity at constant pressure: 166.05 ± 0.73 J/K/mol
313.63 K, Crystal
  molar heat capacity at constant pressure: 166.52 ± 0.73 J/K/mol
315.12 K, Crystal
  molar heat capacity at constant pressure: 167.1 ± 0.73 J/K/mol
317 K, Crystal
  molar heat capacity at constant pressure: 167.67 ± 0.74 J/K/mol
320 K, Crystal
  molar heat capacity at constant pressure: 168.98 ± 0.74 J/K/mol
320.37 K, Crystal
  molar heat capacity at constant pressure: 169.11 ± 0.74 J/K/mol
323.72 K, Crystal
  molar heat capacity at constant pressure: 169.81 ± 0.74 J/K/mol
327.06 K, Crystal
  molar heat capacity at constant pressure: 170.85 ± 0.74 J/K/mol
330 K, Crystal
  molar heat capacity at constant pressure: 172.33 ± 0.74 J/K/mol
330.4 K, Crystal
  molar heat capacity at constant pressure: 172.47 ± 0.75 J/K/mol
333.72 K, Crystal
  molar heat capacity at constant pressure: 173.45 ± 0.75 J/K/mol
337.03 K, Crystal
  molar heat capacity at constant pressure: 174.6 ± 0.75 J/K/mol
340 K, Crystal
  molar heat capacity at constant pressure: 175.62 ± 0.75 J/K/mol
340.34 K, Crystal
  molar heat capacity at constant pressure: 175.73 ± 0.75 J/K/mol
343.63 K, Crystal
  molar heat capacity at constant pressure: 176.72 ± 0.75 J/K/mol
346.92 K, Crystal
  molar heat capacity at constant pressure: 178.18 ± 0.76 J/K/mol
350 K, Crystal
  molar heat capacity at constant pressure: 179.02 ± 0.76 J/K/mol
350.2 K, Crystal
  molar heat capacity at constant pressure: 178.96 ± 0.76 J/K/mol
353.46 K, Crystal
  molar heat capacity at constant pressure: 180.41 ± 0.76 J/K/mol
356.72 K, Crystal
  molar heat capacity at constant pressure: 181 ± 0.76 J/K/mol
357.65 K, Crystal
  molar heat capacity at constant pressure: 181.37 ± 0.76 J/K/mol
359.97 K, Crystal
  molar heat capacity at constant pressure: 182.49 ± 0.77 J/K/mol
360 K, Crystal
  molar heat capacity at constant pressure: 182.5 ± 0.77 J/K/mol
360.9 K, Crystal
  molar heat capacity at constant pressure: 182.62 ± 0.77 J/K/mol
363.22 K, Crystal
  molar heat capacity at constant pressure: 183.54 ± 0.77 J/K/mol
364.15 K, Crystal
  molar heat capacity at constant pressure: 183.8 ± 0.77 J/K/mol
366.45 K, Crystal
  molar heat capacity at constant pressure: 185.01 ± 0.77 J/K/mol
367.38 K, Crystal
  molar heat capacity at constant pressure: 185.01 ± 0.77 J/K/mol
369.68 K, Crystal
  molar heat capacity at constant pressure: 185.57 ± 0.77 J/K/mol
370 K, Crystal
  molar heat capacity at constant pressure: 185.85 ± 0.77 J/K/mol
370.61 K, Crystal
  molar heat capacity at constant pressure: 186.07 ± 0.77 J/K/mol
372.9 K, Crystal
  molar heat capacity at constant pressure: 186.88 ± 0.77 J/K/mol
373.83 K, Crystal
  molar heat capacity at constant pressure: 187.15 ± 0.77 J/K/mol
376.11 K, Crystal
  molar heat capacity at constant pressure: 187.95 ± 0.78 J/K/mol
377.04 K, Crystal
  molar heat capacity at constant pressure: 188.3 ± 0.78 J/K/mol
379.31 K, Crystal
  molar heat capacity at constant pressure: 189.23 ± 0.78 J/K/mol
380 K, Crystal
  molar heat capacity at constant pressure: 189.36 ± 0.78 J/K/mol
380.25 K, Crystal
  molar heat capacity at constant pressure: 189.56 ± 0.78 J/K/mol
390 K, Crystal
  molar heat capacity at constant pressure: 192.86 ± 0.79 J/K/mol
394.96 K, Crystal
  molar heat capacity at constant pressure: 194.6 ± 0.79 J/K/mol
394.96 K, Liquid
  molar heat capacity at constant pressure: 220.84 ± 0.84 J/K/mol
399 K, Liquid
  molar heat capacity at constant pressure: 222.12 ± 0.84 J/K/mol
400 K, Liquid
  molar heat capacity at constant pressure: 222.34 ± 0.85 J/K/mol
401.94 K, Liquid
  molar heat capacity at constant pressure: 222.86 ± 0.85 J/K/mol
404.87 K, Liquid
  molar heat capacity at constant pressure: 223.83 ± 0.85 J/K/mol
407.79 K, Liquid
  molar heat capacity at constant pressure: 224.32 ± 0.85 J/K/mol
410 K, Liquid
  molar heat capacity at constant pressure: 225.31 ± 0.85 J/K/mol
410.72 K, Liquid
  molar heat capacity at constant pressure: 225.87 ± 0.85 J/K/mol
413.63 K, Liquid
  molar heat capacity at constant pressure: 226.31 ± 0.85 J/K/mol
